# Laboratory results from patent US11780823B2, “Indazole-3-carboxamides and their use as Wnt/β-catenin signaling pathway inhibitors” (BioSplice Therapeutics, Inc., priority 2011, dated 2023).
# Tested on: Wnt activity (wnt-responsive SP5 promoter luciferase reporter in SW480 cells)
# Test: Wnt reporter screening assay: SP5 promoter-driven firefly luciferase in SW480 cells
# Type: cell-based
# Conditions: Homo sapiens; SW480 colon cancer cells with SP5 promoter luciferase reporter; half-log dilutions, ten micromolar top concentration; read 24-40 h after compound addition; normalized to DMSO; read-out: Wnt inhibition
# Description: Another screening assay for Wnt activity is described as follows. Reporter cell lines can be generated by stably transducing cells of cancer cell lines (e.g., colon cancer) with a lentiviral construct that include a wnt-responsive promoter driving expression of the firefly luciferase gene.
# Lentiviral constructs can be made in which the SP5 promoter, a promoter having eight TCF/LEF binding sites derived from the SP5 promoter, is linked upstream of the firefly luciferase gene. The lentiviral constructs can also include a hygromycin resistance gene as a selectable marker. The SP5 promoter construct can be used to transduce SW480 cells, a colon cancer cell line having a mutated APC gene that generates a truncated APC protein, leading to de-regulated accumulation of β-catenin.
# Cultured SW480 cells bearing a reporter construct can be distributed at approximately 10,000 cells per well into 96 well or 384 well plates. Compounds from a small molecule compound library can then be added to the wells in half-log dilutions using a ten micromolar top concentration. A series of control wells for each cell type receive only buffer and compound solvent. Twenty-four to forty hours after the addition of compound, reporter activity for luciferase can be assayed, for example, by addition of the BrightGlo luminescence reagent (Promega) and the Victor3 plate reader (Perkin Elmer). Readings can be normalized to DMSO only treated cells, and normalized activities can then be used in the IC50 calculations.
row,SMILES,IC50
1,"CN1CCC(NC(=O)c2n[nH]c3ccc(-c4cncc(CN5CCCCC5)c4)cc23)CC1 [Compound 87, N-(1-Methylpiperidin-4-yl)-5-(5-(piperidin-1-ylmethyl)pyridin-3-yl)-1H-indazole-3-carboxamide]",2440 nM
2,"CN(C)Cc1cncc(NC(=O)c2n[nH]c3ccc(-c4cncc(CN5CCCC5)c4)cc23)c1 [Compound 106, N-(5-((Dimethylamino)methyl)pyridin-3-yl)-5-(5-(pyrrolidin-1-ylmethyl)pyridin-3-yl)-1H-indazole-3-carboxamide]",33 nM
3,"CN1CCN(Cc2cncc(NC(=O)c3n[nH]c4ccc(-c5cncc(CN6CCCCC6)c5)cc34)c2)CC1 [Compound 124, N-(5-((4-Methylpiperazin-1-yl)methyl)pyridin-3-yl)-5-(5-(piperidin-1-ylmethyl)pyridin-3-yl)-1H-indazole-3-carboxamide]",67 nM
4,"O=C(Nc1ccc(N2CCCCC2)nc1)c1n[nH]c2ccc(-c3cncc(CN4CCCCC4)c3)cc12 [Compound 126, N-(6-(Piperidin-1-yl)pyridin-3-yl)-5-(5-(piperidin-1-ylmethyl)pyridin-3-yl)-1H-indazole-3-carboxamide]",22 nM
5,"O=C(Nc1cccc(F)c1)c1n[nH]c2ccc(-c3cncc(CN4CCCCC4)c3)cc12 [Compound 162, N-(3-Fluorophenyl)-5-(5-(piperidin-1-ylmethyl)pyridin-3-yl)-1H-indazole-3-carboxamide]",426 nM
6,"O=C(NC1CCOCC1)c1n[nH]c2ccc(-c3cncc(CN4CCCCC4)c3)cc12 [Compound 163, 5-(5-(Piperidin-1-ylmethyl)pyridin-3-yl)-N-(tetrahydro-2H-pyran-4-yl)-1H-indazole-3-carboxamide]",15400 nM
7,"O=C(Nc1cncc(F)c1)c1n[nH]c2ccc(-c3cncc(CN4CCCCC4)c3)cc12 [Compound 168, N-(5-Fluoropyridin-3-yl)-5-(5-(piperidin-1-ylmethyl)pyridin-3-yl)-1H-indazole-3-carboxamide]",66 nM
8,"O=C(Nc1ccc(N2CCC(O)CC2)nc1)c1n[nH]c2ccc(-c3cncc(CN4CCCCC4)c3)cc12 [Compound 169, N-(6-(4-Hydroxypiperidin-1-yl)pyridin-3-yl)-5-(5-(piperidin-1-ylmethyl)pyridin-3-yl)-1H-indazole-3-carboxamide]",49 nM
9,"O=C(Nc1ccc(N2CCCC2)nc1)c1n[nH]c2ccc(-c3cncc(CN4CCC(O)CC4)c3)cc12 [Compound 170, 5-(5-((4-Hydroxypiperidin-1-yl)methyl)pyridin-3-yl)-N-(6-(pyrrolidin-1-yl)pyridin-3-yl)-1H-indazole-3-carboxamide]",43 nM
10,"Cc1cc(NC(=O)c2n[nH]c3ccc(-c4cncc(CN5CCCCC5)c4)cc23)cnc1N1CCCC1 [Compound 172, N-(5-Methyl-6-(pyrrolidin-1-yl)pyridin-3-yl)-5-(5-(piperidin-1-ylmethyl)pyridin-3-yl)-1H-indazole-3-carboxamide]",60 nM
11,"Cc1cc(NC(=O)c2n[nH]c3ccc(-c4cncc(CN5CCCCC5)c4)cc23)cnc1N1CCC1 [Compound 173, N-(6-(Azetidin-1-yl)-5-methylpyridin-3-yl)-5-(5-(piperidin-1-ylmethyl)pyridin-3-yl)-1H-indazole-3-carboxamide]",36 nM
12,"O=C(Nc1ccc(N2CCC2)nc1)c1n[nH]c2ccc(-c3cncc(CN4CCCCC4)c3)cc12 [Compound 174, N-(6-(Azetidin-1-yl)pyridin-3-yl)-5-(5-(piperidin-1-ylmethyl)pyridin-3-yl)-1H-indazole-3-carboxamide]",48 nM
13,"COc1ccc(NC(=O)c2n[nH]c3ccc(-c4cncc(CN5CCCCC5)c4)cc23)cn1 [Compound 175, N-(6-Methoxypyridin-3-yl)-5-(5-(piperidin-1-ylmethyl)pyridin-3-yl)-1H-indazole-3-carboxamide]",25 nM
14,"Nc1ncc(NC(=O)c2n[nH]c3ccc(-c4cncc(CN5CCCCC5)c4)cc23)cn1 [Compound 176, N-(2-Aminopyrimidin-5-yl)-5-(5-(piperidin-1-ylmethyl)pyridin-3-yl)-1H-indazole-3-carboxamide]",30 nM
15,"O=C(Nc1ccc(N2CCNCC2)nc1)c1n[nH]c2ccc(-c3cncc(CN4CCCCC4)c3)cc12 [Compound 177, N-(6-(Piperazin-1-yl)pyridin-3-yl)-5-(5-(piperidin-1-ylmethyl)pyridin-3-yl)-1H-indazole-3-carboxamide]",183 nM
16,"O=C(Nc1ccc(O)nc1)c1n[nH]c2ccc(-c3cncc(CN4CCCCC4)c3)cc12 [Compound 178, N-(6-Hydroxypyridin-3-yl)-5-(5-(piperidin-1-ylmethyl)pyridin-3-yl)-1H-indazole-3-carboxamide]",297 nM
17,"O=C(Nc1ccc(C(=O)N2CCCC2)nc1)c1n[nH]c2ccc(-c3cncc(CN4CCCCC4)c3)cc12 [Compound 179, 5-(5-(Piperidin-1-ylmethyl)pyridin-3-yl)-N-(6-(pyrrolidine-1-carbonyl)pyridin-3-yl)-1H-indazole-3-carboxamide]",30 nM
18,"NC(=O)c1ccc(NC(=O)c2n[nH]c3ccc(-c4cncc(CN5CCCCC5)c4)cc23)cn1 [Compound 180, N-(6-carbamoylpyridin-3-yl)-5-(5-(piperidin-1-ylmethyl)pyridin-3-yl)-1H-indazole-3-carboxamide]",13 nM
19,"O=C(NC1CCCC1)c1ccc(NC(=O)c2n[nH]c3ccc(-c4cccnc4)cc23)cn1 [Compound 181, N-(6-(Cyclopentylcarbamoyl)pyridin-3-yl)-5-(pyridin-3-yl)-1H-indazole-3-carboxamide]",38 nM
20,"Nc1cncc(-c2ccc3[nH]nc(C(=O)Nc4ccc(N5CCCCC5)nc4)c3c2)c1 [Compound 182, 5-(5-Aminopyridin-3-yl)-N-(6-(piperidin-1-yl)pyridin-3-yl)-1H-indazole-3-carboxamide]",35 nM
21,"O=C(Nc1ccc(N2CCCC2)nc1)c1n[nH]c2ccc(-c3cncc(CN4CCC(F)(F)C4)c3)cc12 [Compound 183, 5-(5-((3,3-Difluoropyrrolidin-1-yl)methyl)pyridin-3-yl)-N-(6-(pyrrolidin-1-yl)pyridin-3-yl)-1H-indazole-3-carboxamide]",49 nM
22,"O=C(NC1CCCC1)c1ccc(NC(=O)c2n[nH]c3ccc(-c4cncc(CN5CCCCC5)c4)cc23)cn1 [Compound 184, N-(6-(Cyclopentylcarbamoyl)pyridin-3-yl)-5-(5-(piperidin-1-ylmethyl)pyridin-3-yl)-1H-indazole-3-carboxamide]",40 nM
23,"CS(=O)(=O)c1ccc(NC(=O)c2n[nH]c3ccc(-c4cncc(CN5CCCCC5)c4)cc23)cn1 [Compound 185, N-(6-(Methylsulfonyl)pyridin-3-yl)-5-(5-(piperidin-1-ylmethyl)pyridin-3-yl)-1H-indazole-3-carboxamide]",27 nM
24,"CN1CCN(c2cncc(-c3ccc4[nH]nc(C(=O)Nc5ccc(N6CCCC6)nc5)c4c3)c2)CC1 [Compound 186, 5-(5-(4-Methylpiperazin-1-yl)pyridin-3-yl)-N-(6-(pyrrolidin-1-yl)pyridin-3-yl)-1H-indazole-3-carboxamide]",460 nM
25,"O=C(Nc1ccc(N2CCCC2)nc1)c1n[nH]c2ccc(-c3cncc(N4CCOCC4)c3)cc12 [Compound 187, 5-(5-Morpholinopyridin-3-yl)-N-(6-(pyrrolidin-1-yl)pyridin-3-yl)-1H-indazole-3-carboxamide]",215 nM
26,"O=C(Nc1cccnc1)c1n[nH]c2ccc(-c3cncc(CN4CCC(F)(F)C4)c3)cc12 [Compound 188, 5-(5-((3,3-Difluoropyrrolidin-1-yl)methyl)pyridin-3-yl)-N-(pyridin-3-yl)-1H-indazole-3-carboxamide]",9 nM
27,"O=C(Nc1cccnc1)c1n[nH]c2ccc(-c3cncc(N4CCCC4)c3)cc12 [Compound 189, N-(Pyridin-3-yl)-5-(5-(pyrrolidin-1-yl)pyridin-3-yl)-1H-indazole-3-carboxamide]",85 nM
28,"CN(C)Cc1cncc(-c2ccc3[nH]nc(C(=O)Nc4ccc(N5CCCC5)nc4)c3c2)c1 [Compound 190, 5-(5-((Dimethylamino)methyl)pyridin-3-yl)-N-(6-(pyrrolidin-1-yl)pyridin-3-yl)-1H-indazole-3-carboxamide]",1200 nM
